Results: patent US20180228894A1, “INHIBITION OF CXCR4 SIGNALING IN CANCER IMMUNOTHERAPY” (Cambridge Enterprise Limited, priority 2013, published 2018)
Entries after “also recorded” stand apart in the source; their conditions may differ.

Tests used:
[1] = system: autochthonous mouse pancreatic tumors (KPC model); assay: In vitro T cell exclusion assay: vibratome sections of KPC pancreatic tumors overlaid with activated T cells; assay type: cell-based; settings: culture in the presence of the substance, 37° C. for up to 120 min
From the text: This assay tests the mechanism of T cell exclusion from the vicinity of the cancer cells. It also allows screening of drugs and tumors for potential efficacy. This in vitro assay may also be used to screen other drugs (anti-CXCL12, anti-CXCR4, other CXCR4-directed small molecules) that may interfere with the CXCL12/CXCR4 interaction.
300 um vibratome sections of fresh autochthonous mouse pancreatic tumors (the mouse KPC model of Hingorani et al., Cancer Cell 2005) are overlaid with labeled mouse splenic T cells that have been activated in vitro for several days with anti-CD3 and IL-2 (this generates a T cell population that is like the effector T cells that normally infiltrate inflamed tissues/tumors). The tumor tissue+labeled T cells are then cultured at 37° C. for up to 120 min, after which the non-infiltrated T cells are washed off. The vibratome sections are then fixed for staining (p53 which identifies cancer cells) and SHG (to visualize collagen/stromal regions) by confocal microscopy.

[2] = system: PDA; assay: PDA tumor volume by ultrasound in KPC / KPCD mice, 6 day treatment; assay type: in vivo, mouse
Method: (§1) All experiments were performed in accordance with institutional guidelines and were approved by the UK Home Office and the animal ethics committee of CRUK and the University of Cambridge. Mice were housed at a 12-hour light/12-hour dark cycle and received diet and water ad libitum. The generation of LSL-[…]; LSL10 Tp53R172H/+; Pdx-1-Cre (KPC) and FAP-DTR BAC transgenic mice has been described previously (8, 10). These strains were crossed to generate KPCD (Kras; p53; Cre; DTR) mice. KPC and KPCD mice were screened for tumors from an age of 60 days by abdominal palpation. Tumors were verified by high-resolution ultrasound (Vevo 2100, VisualSonics). Mice with average tumor diameters between 5-8 mm (corresponding to approx. 200 mm3 volume) were enrolled on 6 day treatment studies with 2 follow-up tumor size measurements (day 3 and 6). Where possible, tumors were assessed at multiple angles and the volumes averaged. KPC(−/+DTR Tg) mice were treated every 48 h with 25 ng/g DTx (List Biologicals) in PBS, […] α-PD1 (10F.9G2, Biolegend), 100 μg α-CTLA-4 (9H10, Biolegend) or isotype control antibody by intraperitoneal injection. […] For T-cell depletion studies mice received […] each of α-CD4 (GK1.5, Biolegend) and α-CD8α (53-6.7, Bioloegend) or respective isotype control antibodies for 3 consecutive […] before treatment start and on days 2 and 5 during the course of treatment via intraperitoneal injection.

[3] = system: LL2/OVA tumors; settings: AMD3100 30 mg/ml osmotic pump; C57BL/6 and Rag2−/− mice
Method: C57BL/6 were purchased from Charles River UK and Rag2−/− mice were bred at the local establishment. 2×10^5 LL2/OVA cells were injected subcutaneously in RPMI with 1% heat inactivated mouse serum. Tumor sizes were measured using calipers, measuring the long (L) and short (S) dimension, and tumor volumes were calculated using the equation: volume=(L×S2)/2.

[4] = system: PDA; assay: Immunofluorescent confocal microscopy / ARIOL scanning of KPC tumor sections after treatment; assay type: in vivo, mouse
Method: as §1
5 μm frozen tissue sections were fixed in 4% paraformaldehyde (PFA) for 10 minutes at room temperature. Slides were blocked for one hour in 10% donkey serum (Sigma Aldrich)/0.2% Triton x-100. Primary antibodies were incubated overnight at 4° C. Following washing, slides were incubated for one hour at room temperature with appropriate secondary antibody and DAPI counterstain. Slides were subsequently incubated in 0.3M glycine for 10 minutes to reduce autofluorescence and mounted in Hydromount aqueous mounting medium (Fisher Scientific). Images were acquired on a Leica SP5 tandem confocal microscope. For analysis of p53 and Treg staining slides were scanned and analyzed using the automated ARIOL XT system.

[5] = AMD3100 in combination with α-PD-L1, 24 h treatment

Compound | Localization of T cells in tumor sections [1] | Tumor growth ([2]; AMD3100 by osmotic pump, presence or absence of depleting antibodies to CD4+ and CD8+ T cells) | Decline in PDA volume ([2]; higher dose AMD3100 in combination with α-PD-L1, by 48 h, maintained for 6 days) | PDA growth ([2]; higher dose of AMD3100 (osmotic pump)) | Interaction of AMD3100 with α-PD-L1 ([2]; murine PDA, combination) | Control of subcutaneous LL2 tumors (tumor volume) [3] | Composition of residual tumors ([4]; AMD3100 alone, ARIOL scanning) | Proliferating Ki67+ cells ([4]; AMD3100 and anti-PD-L1, 6 days (FIG. 11, panel E)) | Foxp3+ cells in the tumors ([4]; AMD3100 high in combination with α-PD-L1, 24 h) | Accumulation of T cells amongst cancer cells [4, 5] | Frequency of p53+ LOH cancer cells [4, 5] | Composition of residual tumors ([4]; AMD3100 with α-PD-L1, ARIOL scanning) | Presence of p53+ LOH cancer cells in tumors ([4]; AMD3100 with α-PD-L1, after 6 days of treatment) | Accumulation of T cells amongst cancer cells ([4]; single agent, 24 h treatment) | Presence of p53+ LOH cancer cells in tumors ([4]; single agent, after 6 days of treatment)
c1cc(CN2CCCNCCNCCCNCC2)ccc1CN1CCCNCCNCCCNCC1 [AMD3100, 1,1′-[1,4-phenylenebis(methylene)]bis [1,4,8,11-tetraazacyclotetradecane]] | T cells to be found in both stromal and cancer cell regions | slowed by AMD3100 in a T cell-dependent manner | 15% | almost completely arrested PDA growth | remarkable synergistic interaction | T cell-dependent control of subcutaneous immunogenic LL2 tumors | comprised of premalignant CK19+ epithelial cells and CD45+ inflammatory cells | diminution in proliferating Ki67+ cells | increase | amplified this effect; also recorded: induce the accumulation of CD3+ T cells in cancer-cell-containing regions of PDA | decreased the frequency of p53+ LOH cells; also recorded: loss of cancer cells | comprised of premalignant CK19+ epithelial cells and CD45+ inflammatory cells | rare | increased the accumulation of T cells; also recorded: exclusion is overcome | rare
Z-VAD | T cells accumulating also amongst cancer cells | – | – | – | – | – | – | – | – | – | – | – | – | – | –
